{
  "source": "patent US10227323B2",
  "about": "“Glucosylceramide synthase inhibitors for the treatment of diseases” (BIOMARIN PHARMACEUTICAL INC., priority 2013, dated 2019)",
  "molecular_target": "T1, GCS (Canis lupus familiaris, UniProt A0A8I3MXG6)",
  "T1 sequence (A0A8I3MXG6 1-394)": "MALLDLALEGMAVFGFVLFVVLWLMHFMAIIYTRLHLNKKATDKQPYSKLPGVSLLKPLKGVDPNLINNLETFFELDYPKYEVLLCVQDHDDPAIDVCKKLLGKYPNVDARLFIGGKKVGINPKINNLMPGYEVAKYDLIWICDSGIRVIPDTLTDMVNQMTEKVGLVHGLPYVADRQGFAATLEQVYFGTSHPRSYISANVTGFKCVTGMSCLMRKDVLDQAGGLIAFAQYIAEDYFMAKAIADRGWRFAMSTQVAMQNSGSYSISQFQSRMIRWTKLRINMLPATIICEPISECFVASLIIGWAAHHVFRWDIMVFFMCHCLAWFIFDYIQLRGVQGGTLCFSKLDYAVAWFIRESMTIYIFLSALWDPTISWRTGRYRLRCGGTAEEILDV",
  "test": "Assay 1: GCS Enzymatic Assay (MDCK cell lysate, C6-NBD-Ceramide, LC/MS)",
  "format": "biochemical, canine",
  "conditions": "Table 1, MDCK cell lysate; for IC50: read-out: IC50 (nM) generated from Assay 1; for % inhibition generated from Assay 1: values marked *",
  "experimental": "This assay was modified based on the study by Larsen et al. (J. Lipid Res. 2011, 53, 282). Madin-Darby canine kidney (MDCK) cell lysate was prepared using M-PER Mammalian Protein Extraction Reagent (Thermal Scientific) in the presence of a protease inhibitor cocktail (Roche). Protein concentration was determined using BCA assay kit (Pierce). Sixty micrograms of MDCK cell lysate was incubated with various concentrations of a compound described herein from 0.001 μM-10 μM, respectively, in 100 mM Tris buffer (pH 7.5) containing 10 mM MgCl2, 1 mM dithiothreitol, 1 mM EGTA, 2 mM NAD, 100 μM UDP-glucose, 10 μM C6-NBD-Ceramide (Matreya LLC, Pleasant Gap, Pa.), 35 μM dioleoylphosphatidylcholine and 5 μM sulfatide (Sigma) in a final reaction volume of 100 μL at 37° C. for 1 hour. 0.1% DMSO was used as mock treatment or control. The reaction was terminated by adding 100 μL acetonitrile solution and subjected to LC/MS analysis.\nThe quantitative analysis of NBD-Ceramide and glucosylceramide was performed on a Shimadzu ultra-fast liquid chromatography (Shimadzu, Japan) coupled with API 4000 triple quadrupole mass spectrometer (Applied Biosystems, Concord, Ontario, Canada). Sample separation was conducted on a Waters Xbridge™ BEH130 C18, 100 mm×4.6 mm i.d, 3.5 μm (Milford, Mass., USA). The mobile phase consisted of water and acetonitrile supplemented with 0.1% formic acid (v/v). The flow rate was 1.0 mL/min. The initial mobile phase was 20% acetonitrile and was ramped in a linear fashion to 50% acetonitrile in 0.4 min. From 0.4 to 1.5 min, the gradient was ramped to 98% acetonitrile, and then was held at […] until 8.0 min. Acetonitrile was reset to 20% in 1.5 min, and maintained until 10.0 min. The total run time was 10.0 min. The MS/MS detection was performed in ESI positive mode. The mass transition of NBD-Ceramide was m/z 576.36→558.40 under the collision energy of 15 V, and the mass transition of glucosylceramide was m/z 738.35→558.40 under 21V collision energy. The cell lysate was diluted with equal volume of acetonitrile. Aliquots of 50 μL diluted samples were added to 1.5 mL tubes, and 100 μL of acetonitrile containing internal standard (100 ng/mL tolbutamide) were added for protein precipitation. The mixture were vortexed and then centrifuged at 13000 rpm for 10 min. 70 μL of supernatant were mixed with 140 μL of H2O and the final solution were injected for LC/MS/MS analysis and IC50's and/or percent inhibitions calculated.",
  "data": [
    {"smiles": "O=C(N[C@H](CN1CCCC1)[C@H](O)c1ccc2c(c1)OCCO2)C(F)(F)c1cc2cc(Br)ccc2o1", "note": "[Compound 31, 2-(5-bromobenzofuran-2-yl)-N-((1R,2R)-1-(2,3-dihydrobenzo[b][1,4]dioxin-6-yl)-1-hydroxy-3-(pyrrolidin-1-yl)propan-2-yl)-2,2-difluoroacetamide]", "values": [
      {"measurement": "IC50", "value": "< 50", "unit": "nM"}
    ]},
    {"smiles": "O=C(N[C@H](CN1CCC1)[C@@H](O)c1ccc2c(c1)OCCO2)C(F)(F)c1cc2cc(Cl)ccc2o1", "note": "[Compound 32C, N-((1S,2R)-3-(azetidin-1-yl)-1-(2,3-dihydrobenzo[b][1,4]dioxin-6-yl)-1-hydroxypropan-2-yl)-2-(5-chlorobenzofuran-2-yl)-2,2-difluoroacetamide]", "values": [
      {"measurement": "% inhibition generated from Assay 1", "value": "B* (the compound had a % inhibition of greater than or equal to about 3% but less than about 50%)"}
    ]},
    {"smiles": "O=C(N[C@H](CN1CCC1)[C@H](O)c1ccc2c(c1)OCCO2)C(F)(F)c1cc2cc(Cl)ccc2o1", "note": "[Compound 32D, N-((1R,2R)-3-(azetidin-1-yl)-1-(2,3-dihydrobenzo[b][1,4]dioxin-6-yl)-1-hydroxypropan-2-yl)-2-(5-chlorobenzofuran-2-yl)-2,2-difluoroacetamide]", "values": [
      {"measurement": "IC50", "value": "< 50", "unit": "nM"}
    ]},
    {"smiles": "O=C(N[C@H](CN1CCCC1)[C@H](O)c1cc2c(cc1F)OCCO2)C(F)(F)c1cc2cc(Cl)ccc2o1", "note": "[Compound 33, 2-(5-chlorobenzofuran-2-yl)-2,2-difluoro-N-((1R,2R)-1-(7-fluoro-2,3-dihydrobenzo[b][1,4]dioxin-6-yl)-1-hydroxy-3-(pyrrolidin-1-yl)propan-2-yl)acetamide]", "values": [
      {"measurement": "% inhibition generated from Assay 1", "value": "B* (the compound had a % inhibition of greater than or equal to about 3% but less than about 50%)"}
    ]},
    {"smiles": "O=C(N[C@H](CN1CCCC1)[C@@H](O)c1cc2c(cc1F)OCCO2)C(F)(F)c1cc2cc(Cl)ccc2o1", "note": "[Compound 33A, 2-(5-chlorobenzofuran-2-yl)-2,2-difluoro-N-((1S,2R)-1-(7-fluoro-2,3-dihydrobenzo[b][1,4]dioxin-6-yl)-1-hydroxy-3-(pyrrolidin-1-yl)propan-2-yl)acetamide]", "values": [
      {"measurement": "% inhibition generated from Assay 1", "value": "B* (the compound had a % inhibition of greater than or equal to about 3% but less than about 50%)"}
    ]},
    {"smiles": "O=C(N[C@H](CN1CCCC1)[C@H](O)c1ccc2ncccc2c1)C(F)(F)c1cc2cc(Cl)ccc2o1", "note": "[Compound 34, 2-(5-chlorobenzofuran-2-yl)-2,2-difluoro-N-((1R,2R)-1-hydroxy-3-(pyrrolidin-1-yl)-1-(quinolin-6-yl)propan-2-yl)acetamide]", "values": [
      {"measurement": "% inhibition generated from Assay 1", "value": "A* (the compound had a % inhibition of a percent inhibition of greater than or equal to about 50%)"}
    ]},
    {"smiles": "O=C(N[C@H](CN1CCCC1)[C@@H](O)c1ccc2ncccc2c1)C(F)(F)c1cc2cc(Cl)ccc2o1", "note": "[Compound 34G, 2-(5-chlorobenzofuran-2-yl)-2,2-difluoro-N-((1S,2R)-1-hydroxy-3-(pyrrolidin-1-yl)-1-(quinolin-6-yl)propan-2-yl)acetamide]", "values": [
      {"measurement": "% inhibition generated from Assay 1", "value": "B* (the compound had a % inhibition of greater than or equal to about 3% but less than about 50%)"}
    ]},
    {"smiles": "CC1(C)CCN(C[C@@H](NC(=O)C(F)(F)c2cc3cc(Cl)ccc3o2)[C@@H](O)c2ccc3c(c2)OCCO3)C1", "note": "[Compound 36C, 2-(5-chlorobenzofuran-2-yl)-N-((1S,2R)-1-(2,3-dihydrobenzo[b][1,4]dioxin-6-yl)-3-(3,3-dimethylpyrrolidin-1-yl)-1-hydroxypropan-2-yl)-2,2-difluoroacetamide]", "values": [
      {"measurement": "% inhibition generated from Assay 1", "value": "B* (the compound had a % inhibition of greater than or equal to about 3% but less than about 50%)"}
    ]},
    {"smiles": "O=C(N[C@H](CN1CCCC1)[C@H](O)c1ccc(OC(F)(F)F)cc1)C(F)(F)c1cc2cc(Cl)ccc2o1", "note": "[Compound 37, 2-(5-chlorobenzofuran-2-yl)-2,2-difluoro-N-((1R,2R)-1-hydroxy-3-(pyrrolidin-1-yl)-1-(4-(trifluoromethoxy)phenyl)propan-2-yl)acetamide]", "values": [
      {"measurement": "% inhibition generated from Assay 1", "value": "B* (the compound had a % inhibition of greater than or equal to about 3% but less than about 50%)"}
    ]},
    {"smiles": "O=C(N[C@H](CN1CCCC1)[C@@H](O)c1ccc(OC(F)(F)F)cc1)C(F)(F)c1cc2cc(Cl)ccc2o1", "note": "[Compound 37G, 2-(5-chlorobenzofuran-2-yl)-2,2-difluoro-N-((1S,2R)-1-hydroxy-3-(pyrrolidin-1-yl)-1-(4-(trifluoromethoxy)phenyl)propan-2-yl)acetamide]", "values": [
      {"measurement": "% inhibition generated from Assay 1", "value": "B* (the compound had a % inhibition of greater than or equal to about 3% but less than about 50%)"}
    ]},
    {"smiles": "O=C(N[C@H](CN1CC[C@H](F)C1)[C@H](O)c1ccc2c(c1)OCCO2)C(F)(F)c1cc2cc(Cl)ccc2o1", "note": "[Compound 38, 2-(5-chlorobenzofuran-2-yl)-N-((1R,2R)-1-(2,3-dihydrobenzo[b][1,4]dioxin-6-yl)-3-((S)-3-fluoropyrrolidin-1-yl)-1-hydroxypropan-2-yl)-2,2-difluoroacetamide]", "values": [
      {"measurement": "% inhibition generated from Assay 1", "value": "B* (the compound had a % inhibition of greater than or equal to about 3% but less than about 50%)"}
    ]},
    {"smiles": "C[C@@H]1CCCN1C[C@@H](NC(=O)C(F)(F)c1cc2cc(Cl)ccc2o1)[C@H](O)c1ccc2c(c1)OCCO2", "note": "[Compound 39, 2-(5-chlorobenzofuran-2-yl)-N-((1R,2R)-1-(2,3-dihydrobenzo[b][1,4]dioxin-6-yl)-1-hydroxy-3-((1R)-2-methylpyrrolidin-1-yl)propan-2-yl)-2,2-difluoroacetamide]", "values": [
      {"measurement": "IC50", "value": "< 50", "unit": "nM"}
    ]},
    {"smiles": "C[C@H]1CCCN1C[C@@H](NC(=O)C(F)(F)c1cc2cc(Cl)ccc2o1)[C@H](O)c1ccc2c(c1)OCCO2", "note": "[Compound 40, 2-(5-chlorobenzofuran-2-yl)-N-((1R,2R)-1-(2,3-dihydrobenzo[b][1,4]dioxin-6-yl)-1-hydroxy-3-((S)-2-methylpyrrolidin-1-yl)propan-2-yl)-2,2-difluoroacetamide]", "values": [
      {"measurement": "IC50", "value": "< 50", "unit": "nM"}
    ]},
    {"smiles": "O=C(N[C@H](CN1CCC(F)(F)C1)[C@H](O)c1ccc2c(c1)OCCO2)C(F)(F)c1cc2cc(Cl)ccc2o1", "note": "[Compound 41, 2-(5-chlorobenzofuran-2-yl)-N-((1R,2R)-3-(3,3-difluoropyrrolidin-1-yl)-1-(2,3-dihydrobenzo[b][1,4]dioxin-6-yl)-1-hydroxypropan-2-yl)-2,2-difluoroacetamide]", "values": [
      {"measurement": "% inhibition generated from Assay 1", "value": "B* (the compound had a % inhibition of greater than or equal to about 3% but less than about 50%)"}
    ]},
    {"smiles": "O=C(N[C@H](CN1CCCC1)[C@H](O)c1ccc(OC2CC2)c(Cl)c1)C(F)(F)c1cc2cc(Cl)ccc2o1", "note": "[Compound 44, N-((1R,2R)-1-(3-chloro-4-cyclopropoxyphenyl)-1-hydroxy-3-(pyrrolidin-1-yl)propan-2-yl)-2-(5-chlorobenzofuran-2-yl)-2,2-difluoroacetamide]", "values": [
      {"measurement": "IC50", "value": "< 50", "unit": "nM"}
    ]},
    {"smiles": "O=C(N[C@H](CN1CCCC1)[C@@H](O)c1ccc(OC2CC2)c(Cl)c1)C(F)(F)c1cc2cc(Cl)ccc2o1", "note": "[Compound 44H, N-((1S,2R)-1-(3-chloro-4-cyclopropoxyphenyl)-1-hydroxy-3-(pyrrolidin-1-yl)propan-2-yl)-2-(5-chlorobenzofuran-2-yl)-2,2-difluoroacetamide]", "values": [
      {"measurement": "% inhibition generated from Assay 1", "value": "B* (the compound had a % inhibition of greater than or equal to about 3% but less than about 50%)"}
    ]},
    {"smiles": "O=C(N[C@H](CN1CC[C@@H](F)C1)[C@H](O)c1ccc2c(c1)OCCO2)C(F)(F)c1cc2cc(Cl)ccc2o1", "note": "[Compound 46, 2-(5-chlorobenzofuran-2-yl)-N-((1R,2R)-1-(2,3-dihydrobenzo[b][1,4]dioxin-6-yl)-3-((1R)-3-fluoropyrrolidin-1-yl)-1-hydroxypropan-2-yl)-2,2-difluoroacetamide]", "values": [
      {"measurement": "IC50", "value": "50 to 5000", "unit": "nM"}
    ]},
    {"smiles": "O=C(N[C@H](CN1CC2(CCC2)C1)[C@H](O)c1ccc2c(c1)OCCO2)C(F)(F)c1cc2cc(Cl)ccc2o1", "note": "[Compound 48, 2-(5-chlorobenzofuran-2-yl)-N-((1R,2R)-1-(2,3-dihydrobenzo[b][1,4]dioxin-6-yl)-1-hydroxy-3-(2-azaspiro[3.3]heptan-2-yl)propan-2-yl)-2,2-difluoroacetamide]", "values": [
      {"measurement": "% inhibition generated from Assay 1", "value": "B* (the compound had a % inhibition of greater than or equal to about 3% but less than about 50%)"}
    ]}
  ]
}
